Assay [1] relates to STZ-diabetic rats. Put plainly: Plasma glucose content in STZ-diabetic rats after 2 weeks of oral dosing. Particulars: 200 mg/kg/day intragastric. The assay is classed as in vivo, Sprague-Dawley (SD) rats. The protocol:
All experiments were performed on Sprague-Dawley (SD) rats aged 10 weeks, weighed 200-250 g and purchased from the Seoul national university. The animals were acclimatized for 1-2 weeks before being used for the experiments. Standard pelleted diet and water were given ad libitum. Animals were maintained under constant 12 hours light and dark cycle and an environmental temperature ranging from 21 to 23° C. Diabetes mellitus was induced in male SD rats, weighing 220-250 g, by a single intraperitoneal injection of strptozotocin (Sigma chemical CO., St. Louis, Mo., USA) dissolved in phosphate buffered saline acidified to pH 4.5 with 0.05 M citric acid (66 mg/kg body wt). Control rats were injected with the vehicle only. The animals were fed standard Lab. Chows and water ad. Lib. throughout the experiments. Two weeks later, the diabetes-induced rats were used in following experiments. […] extracts were suspended in saline containing 0.5% carboxymethyl cellulose. The animals were then sacrificed under ether anesthesia and their blood samples were collected. Plasma glucose levels were determined by using a commercial kit.

Assay [2] deals with STZ-diabetic rats. Put plainly: Sorbitol accumulation in red blood cell, lenses and sciatic nerves of STZ-diabetic rats. The assay is classed as in vivo, SD rats. The conditions noted are these: 2 weeks. The protocol: Diabetes mellitus was induced in male SD rats, weighing 220-250 g, by a single intraperitoneal injection of strptozotocin (Sigma chemical CO., St. Louis, Mo., USA) dissolved in phosphate buffered saline acidified to pH 4.5 with 0.05 M citric acid (66 mg/kg body wt). Control rats were injected with the vehicle only. The animals were fed standard Lab. Chows and water ad. Lib. throughout the experiments. Two weeks later, the diabetes-induced rats were used in following experiments. […] The extract was suspended in saline containing 0.5% carboxymethyl cellulose. The animals were then sacrificed under ether anesthesia. The contents of sorbitol in the red blood cell, sciatic nerves, and lenses were determined enzymatically. Sorbitol was measured by a modification of the enzymatic assay procedure described in the literature (Clements, R. S. et al.; Science, 166(908), pp1007-8, 1969). 0.5 ml of protein-free filtrate of tissues was added to a reaction mixture consisting of 1.0 ml of 0.05 M glycine buffer adjusted to pH 9.4 containing 0.2 mM nicotinamide adenine dinucleotide (NAD) and 0.64 U of sorbitol dehydrogenase. Blanks untreated with the filtrate, NAD, or sorbitol dehydrogenase, were routinely run simultaneously. The relative fluorescence due to NADH was measured with an excitation wavelength of 366 nm and an emission wavelength of 452 nm. Epalrestat used in the present invention is a conventional therapeutic drug for diabetic complications.

The target in assay [3] is T1, rat lenses aldose reductase (Rattus norvegicus, UniProt P07943).
T1 construct: The supernatant fraction of the rat lens homogenate was prepared according to the procedure described in the literature; from tissue; host or cells: lenses of Sprague-Dawley rats
The assay can be described thus: Rat lens aldose reductase inhibition (NADPH decrease at 340 nm, DL-glyceraldehyde substrate). The format is biochemical, Sprague-Dawley rats. The protocol:
Crude aldose reductase was prepared as follows: rat lenses were removed from Sprague-Dawley rats weighing 250˜280 g and frozen until use. […] Partially purified enzyme having its a specific activity of 6.5 U/mg was routinely used to test enzyme inhibition. The partially purified material was separated into 1.0 ml of aliquots and stored at −40° C.
Each 1.0 ml of cuvette containing equal units of enzyme, 0.1M sodium phosphate buffer (pH 6.2), 0.3 mM NADPH with or without 10 mM substrate and inhibitor was prepared.

In a further assay the test system is normal rats. The assay can be described thus: Oral glucose tolerance test in normal rats. Particulars: extracts 300 mg/kg. The assay is classed as in vivo, SD rats. The protocol: Prior to an oral glucose tolerance test, rats were fasted for 16 hours. And then saline for control group, 250 mg/kg of metformin, one of the biguanides drug for comparison group and each 300 mg/kg of Elfvingia applanata extracts, respectively, was orally administered to each group consisting of 10 rats. Thirty minutes later, 3 g/kg of glucose was orally administered to each rat with a feeding syringe. Blood samples were collected from carotid artery at (just before the oral administration of glucose), 60, 120, and 180 mins after glucose load for glucose assay.

Molecules are shown by their SMILES.

On to `CC(/C=C1\SC(=S)N(CC(=O)O)C1=O)=C\c1ccccc1` [Epalrestat], for which, in the assay on STZ-diabetic rats [1], the Plasma glucose came to 3.9 ± 0.2 g/L. In addition, the “Inhibition (%) of plasma glucose” value with STZ-diabetic rats [1] (vs control) came out at 31.6%. The “Sorbitol in the lenses” value in the assay with STZ-diabetic rats [2] (lenses, 200 mg/kg/day intragastric) is recorded as 0.38 ± 0.05 nmol/mg dry wt. For the same compound, the “Inhibition (%) of sorbitol accumulation in the lenses” value in the assay with STZ-diabetic rats [2] (lenses, 200 mg/kg/day) is given as 52.5%. The “Sorbitol in the red blood cell” value in the assay on STZ-diabetic rats [2] (red blood cell, 200 mg/kg/day intragastric) is 108.7 ± 11.6 nmol/g Hg. Also, the “Inhibition (%) of sorbitol accumulation in the red blood cell” value in the assay on STZ-diabetic rats [2] (red blood cell, 200 mg/kg/day) was found to be 75.0%. Also, the “Sorbitol in the sciatic nerves” value in the assay on STZ-diabetic rats [2] (sciatic nerves, 200 mg/kg/day intragastric) is 4.3 ± 0.5 nmol/mg dry wt. Besides, the “Inhibition (%) of sorbitol accumulation in the sciatic nerves” value in the assay with STZ-diabetic rats [2] (sciatic nerves, 200 mg/kg/day) is reported as 58.2%. In assay [3] (concentration 0.001 μg/ml), the inhibition (as a rule, how much of the control response was suppressed) at 0.001 µg/mL amounted to 35%. 0.01 µg/mL produced 60.2% inhibition in assay [3] (concentration 0.01 μg/ml). Further, 0.1 µg/mL produced 100% inhibition in assay [3] (concentration 0.1 μg/ml).

As to `CN(C)C(=N)N=C(N)N` [Metformin, metformin], the “Glucose, 1 hr” value in the assay on normal rats (1 hr after 3 g/kg oral glucose load, metformin 250 mg/kg oral) was determined as 140.1 ± 7.0 mg/dL. In addition, in the assay with normal rats (2 hr after 3 g/kg oral glucose load, metformin 250 mg/kg oral), the “Glucose, 2hr” value stood at 122.8 ± 1.4 mg/dL. In addition, the “Glucose, 3hr” value in the assay on normal rats (3 hr after 3 g/kg oral glucose load, metformin 250 mg/kg oral) turned out to be 139.7 ± 4.5 mg/dL. Also, the “Glucose, 0 hr” value in the assay with normal rats (just before 3 g/kg oral glucose load, metformin 250 mg/kg oral 30 min earlier) came out at 54.5 ± 2.2 mg/dL.

On to `O=C(O)CC1(CC(=O)O)CCCC1` [TMG, TetraMethylene Glutaric acid], for which the “Inhibition (%) of aldose reductase” value in assay [3] (concentration 0.1 μg/ml) was found to be 40.6%; in assay [3] (concentration 1 μg/ml) it was 51.3%; in assay [3] (concentration 10 μg/ml), 76.4%. The IC50 – broadly, the point on the concentration scale where inhibition reaches its midpoint – in assay [3] (rat lens enzyme, pH 6.2, unit (μM) printed beside the value) is 0.46 µM.

The record behind these values is patent US7192591B2, “Pharmaceutical composition comprising an extract of Elfvingia applanata for the prevention and the treatment of diabetes and diabetic complications” (priority 2002, dated 2007).
